According to article PMC3920478, “Small molecule-mediated refolding and activation of myosin motor function” (eLife, 2014):
pKd: −log10 of the molar value. “Also recorded” adds a separate entry of the source.

Experiments:
β-cardiac myosin [1] = target: T1, β-cardiac myosin (Sus scrofa, UniProt P79293); assay: Frictional loading experiments with α-actinin (force production); assay type: biochemical, Porcine; parameters: β-Cardiac myosin-2 (S1, full-length); from tissue; host or cells: porcine cardiac muscle
Text: (§1) In addition, the fraction of moving filaments increased from <75% to >95%. […] In initial experiments, we determined the minimal concentration of α-actinin molecules that generate sufficient load to stall the movement of actin filaments for a given surface density of myosin heads. […] Next, we generated in vitro motility flow cells with actin filaments held at stall force. […] The time-dependence of the recovery of motile activity is best fit by a hyperbola. A plateau value of 0.4 μm s^−1 is reached after more than 2 hr (Figure 1G).
Target sequence in this assay (P79293 whole entry): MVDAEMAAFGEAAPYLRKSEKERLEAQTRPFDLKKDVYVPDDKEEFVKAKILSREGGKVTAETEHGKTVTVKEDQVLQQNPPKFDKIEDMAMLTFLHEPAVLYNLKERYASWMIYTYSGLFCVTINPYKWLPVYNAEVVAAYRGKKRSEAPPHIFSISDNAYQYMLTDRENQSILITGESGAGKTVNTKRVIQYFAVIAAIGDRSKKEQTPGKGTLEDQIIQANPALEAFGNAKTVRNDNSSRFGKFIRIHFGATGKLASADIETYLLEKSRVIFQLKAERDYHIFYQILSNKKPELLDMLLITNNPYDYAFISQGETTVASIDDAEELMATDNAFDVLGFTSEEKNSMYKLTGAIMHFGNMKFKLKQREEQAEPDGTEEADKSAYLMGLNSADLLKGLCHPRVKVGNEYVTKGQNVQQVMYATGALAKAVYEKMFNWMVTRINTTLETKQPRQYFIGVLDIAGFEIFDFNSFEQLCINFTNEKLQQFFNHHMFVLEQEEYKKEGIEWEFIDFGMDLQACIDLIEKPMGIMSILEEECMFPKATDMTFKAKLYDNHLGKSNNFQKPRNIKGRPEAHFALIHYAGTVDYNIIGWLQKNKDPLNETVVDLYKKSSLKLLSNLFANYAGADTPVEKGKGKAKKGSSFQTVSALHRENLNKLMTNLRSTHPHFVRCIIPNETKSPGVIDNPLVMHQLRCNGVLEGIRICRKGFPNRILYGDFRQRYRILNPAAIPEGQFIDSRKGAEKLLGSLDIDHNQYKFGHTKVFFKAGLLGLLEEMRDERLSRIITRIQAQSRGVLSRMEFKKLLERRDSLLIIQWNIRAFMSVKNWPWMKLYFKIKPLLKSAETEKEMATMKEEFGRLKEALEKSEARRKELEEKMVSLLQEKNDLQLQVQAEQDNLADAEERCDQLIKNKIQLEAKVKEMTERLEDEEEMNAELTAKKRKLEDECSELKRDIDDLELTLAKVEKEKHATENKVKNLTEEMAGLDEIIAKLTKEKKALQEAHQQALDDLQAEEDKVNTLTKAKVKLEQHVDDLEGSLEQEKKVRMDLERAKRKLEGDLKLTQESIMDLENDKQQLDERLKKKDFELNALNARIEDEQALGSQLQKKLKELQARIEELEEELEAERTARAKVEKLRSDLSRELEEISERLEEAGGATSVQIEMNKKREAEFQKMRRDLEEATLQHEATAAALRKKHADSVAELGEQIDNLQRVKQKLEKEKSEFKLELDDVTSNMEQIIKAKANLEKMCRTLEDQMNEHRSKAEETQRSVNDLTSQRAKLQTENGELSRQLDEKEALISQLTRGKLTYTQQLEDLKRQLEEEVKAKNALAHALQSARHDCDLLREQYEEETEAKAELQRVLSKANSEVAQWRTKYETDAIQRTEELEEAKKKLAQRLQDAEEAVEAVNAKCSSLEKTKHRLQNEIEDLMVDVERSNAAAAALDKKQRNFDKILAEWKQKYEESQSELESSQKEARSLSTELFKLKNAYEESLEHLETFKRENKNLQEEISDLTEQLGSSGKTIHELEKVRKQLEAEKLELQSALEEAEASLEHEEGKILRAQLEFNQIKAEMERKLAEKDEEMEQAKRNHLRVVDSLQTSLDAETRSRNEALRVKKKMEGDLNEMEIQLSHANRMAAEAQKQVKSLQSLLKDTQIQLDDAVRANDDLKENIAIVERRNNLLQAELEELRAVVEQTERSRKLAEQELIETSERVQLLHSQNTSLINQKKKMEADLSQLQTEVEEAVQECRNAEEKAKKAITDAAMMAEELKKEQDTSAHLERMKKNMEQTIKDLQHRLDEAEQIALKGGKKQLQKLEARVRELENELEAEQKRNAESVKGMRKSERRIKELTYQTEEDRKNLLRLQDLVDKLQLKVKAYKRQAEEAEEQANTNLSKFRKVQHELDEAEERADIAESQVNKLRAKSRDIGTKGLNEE

β-cardiac myosin [2] = target: T1, β-cardiac myosin; assay: In vitro motility assay (actin filament sliding); assay type: biochemical, Porcine; parameters: β-Cardiac myosin-2 (S1, full-length); from tissue; host or cells: porcine cardiac muscle
Text: as §1
Target sequence in this assay (P79293 whole entry): as above
Actin-sliding motility was performed at 20°C using an Olympus IX81 (Olympus, Hamburg, Germany) inverted fluorescence microscope as described previously ([Fujita-Becker et al., 2005]). Average sliding velocities were determined from the Gaussian distribution of automatically tracked actin filaments using DiaTrack 3.01 (Semasopht, Chavannes, Switzerland) and Origin 7.0 (OriginLab Corporation, Northampton, MA). Errors indicate standard deviations.

[3] = tested on: neonatal rat cardiomyocytes (NRCM); assay: Neonatal rat cardiomyocytes: cell size, MHC and ANP expression at 37°C or 42°C; assay type: cell-based; details: 10 µM, 24 hr
Method: Cell culture media, fetal bovine serum (FBS), and horse serum (HS) were purchased from Biochrome (Berlin, Germany); all other chemicals were from Sigma-Aldrich (St Louis, MO). Isolation of neonatal rat cardiomyocytes (NRCM) was performed by enzymatic digestion of neonatal rat hearts as described previously ([Hilfiker-Kleiner et al., 2004]). NRCM were cultured in plating medium containing 5% FBS and 10% HS for 24 hr followed by serum-starvation for 48 hr. NRCM were cultured in serum-free medium containing either EMD (10 µM) or the corresponding volume of the solvent DMSO (1 µl/ ml) for additional 24 hr at 37°C or 42°C with 5% CO2.
For indirect immunofluorescence NRCM were fixed with 95% ethanol. Monoclonal antibodies against sarcomeric α-actinin (1:50; Sigma-Aldrich) or sarcomeric Myosin heavy chain (1:50; Santa Cruz Biotechnology, Dallas, TX) were used. Fluor-488 goat anti-mouse IgG (1:250; Jackson ImmunoResearch, West Grove, PA) or Alexa Fluor 639 goat anti-rabbit (1:250; Jackson ImmunoResearch) was employed as secondary antibody. Immunofluorescence was detected by the use of the AxioVison Rel 4.1 package (Carl Zeiss GmbH).
Realtime measurement of PCR amplification was performed using the Stratagene MX4000 multiplex QPCR System with the SYBR green dye method (Brilliant SYBR Green Mastermix-Kit, Stratagene, La Jolla, CA) as described ([Hilfiker-Kleiner et al., 2010]; [Hoch et al., 2011]). Total RNA was extracted from NRCM using Trizol reagent according to the manufactures protocol (Invitrogen, Carlsbad, CA). Reverse transcriptase (RT)-PCR was performed of ANP and b2m using 2 μg of total RNA. The primer sequences and PCR conditions are described in Table 3. PCR products were size-fractionated by 2% agarose gel electrophoresis.
Protein expression in NRCM was determined by standard immunoblotting techniques under denaturing conditions, as described previously ([Hilfiker-Kleiner et al., 2004]). A monoclonal primary antibody against sarcomeric MHC (1:1.000; Abcam, Cambridge, UK) was used and signal detection was achieved by the usage of a horseradish peroxydase-conjugated secondary antibody (GE) and ECL-detection. PonceauS staining was carried out and used as a loading control.

β-cardiac myosin S1 = target: T2, β-cardiac myosin S1 (Sus scrofa, UniProt P79293); assay: Microscale thermophoresis direct binding; parameters: species or system Porcine
T2 construct: S1 and HMM fragments were produced by proteolytic digestion of the full-length proteins with 0.05 mg/ml papain; from tissue; host or cells: porcine cardiac muscle
T2 sequence (P79293 1-843 limits assumed): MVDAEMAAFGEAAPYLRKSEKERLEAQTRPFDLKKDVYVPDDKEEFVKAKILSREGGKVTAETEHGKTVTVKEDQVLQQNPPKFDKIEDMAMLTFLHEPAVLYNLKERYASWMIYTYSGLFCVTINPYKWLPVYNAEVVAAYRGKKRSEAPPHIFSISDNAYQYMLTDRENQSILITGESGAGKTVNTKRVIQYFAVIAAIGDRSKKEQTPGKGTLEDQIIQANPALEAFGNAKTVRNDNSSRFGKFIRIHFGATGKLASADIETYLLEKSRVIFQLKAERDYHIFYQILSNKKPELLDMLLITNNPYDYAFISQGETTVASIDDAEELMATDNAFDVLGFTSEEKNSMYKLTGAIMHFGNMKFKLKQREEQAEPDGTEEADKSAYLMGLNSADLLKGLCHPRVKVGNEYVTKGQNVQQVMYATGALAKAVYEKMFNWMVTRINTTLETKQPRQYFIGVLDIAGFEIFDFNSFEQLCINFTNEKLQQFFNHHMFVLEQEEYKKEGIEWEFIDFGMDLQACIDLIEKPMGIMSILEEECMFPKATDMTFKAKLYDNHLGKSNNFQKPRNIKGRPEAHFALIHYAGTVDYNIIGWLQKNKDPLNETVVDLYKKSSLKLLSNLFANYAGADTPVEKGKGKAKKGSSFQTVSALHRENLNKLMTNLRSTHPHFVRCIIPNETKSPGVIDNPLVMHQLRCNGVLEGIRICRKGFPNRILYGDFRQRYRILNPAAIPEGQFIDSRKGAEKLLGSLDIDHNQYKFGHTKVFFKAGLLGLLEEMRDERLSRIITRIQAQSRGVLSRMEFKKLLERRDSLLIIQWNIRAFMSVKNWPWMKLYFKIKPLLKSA
Text: Proteolytic fragments were further purified by actin-coprecipitation.

β-cardiac myosin [4] = target: T1, β-cardiac myosin; assay: Heat stress protection, storage and refolding of myosin; assay type: biochemical, Porcine; details: for Competence to bind nucleotide (mantATP amplitude) preserved: 25 μM EMD 57033
Method: The fraction of myosin that is able to bind mantATP drops to below 32% when the temperature is raised to 49°C for more than 5 min. Incubation for 10 min at 51°C removes the myosin completely and irreversibly from the soluble fraction. […] Moreover, based on the amplitude of the rise in mantATP fluorescence, the competence of β-cardiac myosin to bind nucleotide is preserved to more than 91% after 5-min incubation at 49°C and to approximately 82% after 10-min incubation at 49°C (Figure 4B). […] This view is supported by experiments that monitor the recovery of basal activity over a 2 hr period (Figure 4C). To obtain more detailed information about the kinetics of the EMD 57033-mediated refolding reaction, we performed three sets of experiments recording the time and concentration dependence of EMD 57033-mediated increases in the fraction of myosin molecules that are able to undergo nucleotide induced conformational changes, hydrolyze ATP, and produce movement in the in vitro motility assay.
Changes in intrinsic protein fluorescence are tightly linked to ATP binding and ATP-induced conformational changes in the myosin motor domain ([Batra and Manstein, 1999]). […] The dependence of the kobs values on the incubation time was best fit by a hyperbola (Figure 4E). […] The slope defines a value of 0.02 × 10^-3 μM^−1 s^−1 for the second order rate constant for the EMD 57033-mediated refolding reaction (Figure 4H).
Target sequence in this assay (P79293 1-778 limits assumed): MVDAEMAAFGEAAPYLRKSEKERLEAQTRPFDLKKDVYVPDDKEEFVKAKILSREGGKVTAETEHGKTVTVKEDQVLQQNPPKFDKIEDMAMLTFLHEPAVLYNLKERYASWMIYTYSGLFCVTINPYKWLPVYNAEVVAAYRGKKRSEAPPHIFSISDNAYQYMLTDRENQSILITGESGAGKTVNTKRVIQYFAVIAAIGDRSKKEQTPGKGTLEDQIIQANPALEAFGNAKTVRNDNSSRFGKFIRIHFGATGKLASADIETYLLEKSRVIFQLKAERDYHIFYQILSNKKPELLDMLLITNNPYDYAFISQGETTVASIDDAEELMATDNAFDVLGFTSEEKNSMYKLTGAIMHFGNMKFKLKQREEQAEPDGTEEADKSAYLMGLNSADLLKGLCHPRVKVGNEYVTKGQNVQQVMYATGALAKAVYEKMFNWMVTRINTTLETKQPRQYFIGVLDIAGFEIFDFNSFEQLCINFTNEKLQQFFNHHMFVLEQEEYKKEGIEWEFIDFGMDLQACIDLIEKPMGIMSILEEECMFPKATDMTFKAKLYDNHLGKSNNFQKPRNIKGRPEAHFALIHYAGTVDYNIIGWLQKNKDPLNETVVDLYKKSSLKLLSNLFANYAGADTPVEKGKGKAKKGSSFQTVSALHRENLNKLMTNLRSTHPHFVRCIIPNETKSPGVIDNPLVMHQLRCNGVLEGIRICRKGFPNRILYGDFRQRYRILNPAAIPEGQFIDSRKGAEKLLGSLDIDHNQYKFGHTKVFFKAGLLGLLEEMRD

[5] = 25 μM EMD 57033, 8 µg/ml α-actinin

For `COc1ccc(C(=O)N2CCCc3cc(C4=NNC(=O)SC4C)ccc32)cc1OC` (stereo not shown) [EMD 57033], the “Plateau value of recovered filament velocity at stall load” value (β-cardiac myosin [1]; [5]) was 0.4 μm s^−1, the “Time to reach plateau of recovered motility” value (β-cardiac myosin [1]; [5]) was “more than 2 hr” and the “α-actinin concentration required to stall filament movement” value (β-cardiac myosin [1]; in presence of EMD 57033) was no less than 12 µg/mL. For the same molecule, the “Increase of actin filament sliding velocity” value (β-cardiac myosin [2]) was 1.8 fold, the “Fraction of moving filaments” value (β-cardiac myosin [2]; in presence of EMD 57033) was greater than 95% and the “ANP mRNA expression” value ([3]; 37°C) was “not significantly changed; also recorded: does not affect expression of ANP mRNA”. The “Total cardiac MHC protein content” value ([3]; 37°C or 42°C) was “without significant changes in total cardiac MHC protein content; also recorded: does not significantly alter MHC protein levels”, the “β-cardiac MHC mRNA expression” value ([3]; 37°C, vs DMSO) was “reduction in β-cardiac MHC transcripts; also recorded: significantly reduces” and the “ANP mRNA expression induced by hyperthermic stress” value ([3]; 42°C) was “completely suppressed; also recorded: fully suppressed”. The “β-cardiac MHC mRNA downregulation” value ([3]; 42°C) was “significantly more pronounced”, the “α-cardiac MHC mRNA expression” value ([3]; vs DMSO) was “without significant changes; also recorded: does not alter α-cardiac MHC mRNA expression” and the Binding stoichiometry (β-cardiac myosin S1) was “one molecule of EMD 57033 per myosin head”. For the same molecule, the pKd (β-cardiac myosin S1; fluorescently labeled β-cardiac myosin S1, 100 nM, fit to Hill equation, read-out: Binding affinity (MST), KD) was 5.14, the “Shelf life of protein-functionalized surfaces” value (β-cardiac myosin [4]) was “from a couple of hours to several months” and the “Shelf life of myosin at 4°C” value (β-cardiac myosin [4]; 25 µM EMD 57033) was “extends the shelf life”. The “Competence to bind nucleotide (mantATP amplitude) preserved” value (β-cardiac myosin [4]; 5-min incubation at 49°C) was “more than 91%”, the “Competence to bind nucleotide (mantATP amplitude) preserved” value (β-cardiac myosin [4]; 10-min incubation at 49°C) was “approximately 82%” and the “Recovery of ability to bind mantATP after heat inactivation” value (β-cardiac myosin [4]; 10 min at 49°C, then 25 µM EMD 57033) was “gradually recovered”. The “First order dissociation rate constant for EMD 57033 (y-intercept)” value (β-cardiac myosin [4]; heat-treated β-cardiac myosin) was 0.00023 s⁻¹, the “Second order rate constant for the EMD 57033-mediated refolding reaction (krescue)” value (β-cardiac myosin [4]; heat-treated β-cardiac myosin, 10–100 μM EMD 57033) was 20 M⁻¹ s⁻¹ and the “Recovery of enzymatic activity of fully denatured myosin aggregates” value (β-cardiac myosin [4]; incubation for 6 hr on ice or at 20°C) was “no detectable recovery of enzymatic activity”. For the same molecule, the “Precipitation / solubility of myosin under heat stress” value (β-cardiac myosin [4]; preincubation with 25 μM EMD 57033, 10-min incubation) was “remained in the supernatant over the entire temperature range tested; also recorded: prevents precipitation”.
